The assay deals with T1, CFTR (Homo sapiens, UniProt P13569, DEL508-508).
T1 construct: endogenous in cells; host or cells: primary human bronchial epithelial cells from CF subjects (F508del/MF-HBE), differentiated at air-liquid interface
The assay is described as follows: HBE assay: Ussing chamber assay of CFTR-mediated short-circuit currents. The assay is classed as cell-based. Summed up:
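CFTR-mediated Isc (μA/cm²) equals the peak response to apical 20 μM forskolin minus the residual after a 20 μM each BPO/GlyH-101/CFTR inhibitor 172 cocktail, recorded in Ussing chambers at Vhold 0 mV, 37 °C, pH 7.4, with 30 μM apical amiloride. Cells were F508del/MF HBE cultures preincubated 18-24 h with corrector (concentration range or 10 μM) plus 1 μM ivacaftor in 20% human serum.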

[1] abbreviates: Table 12, read-out: HBE Max Activity (%).
Where [2] appears, read: HBE assay, read-out: HBE Max activity (%).
Setting [3] is: Table 10, read-out: HBE activity at 10 (μM) (%).
[4] abbreviates: Table 10, read-out: HBE Max activity (%).

SMILES strings stand for the structures. Like-named read-outs stand apart in the source and are kept apart here. Bounds are passed on as bounds.

T1 sequence (P13569 with tags, fused parts or gaps DEL508-508): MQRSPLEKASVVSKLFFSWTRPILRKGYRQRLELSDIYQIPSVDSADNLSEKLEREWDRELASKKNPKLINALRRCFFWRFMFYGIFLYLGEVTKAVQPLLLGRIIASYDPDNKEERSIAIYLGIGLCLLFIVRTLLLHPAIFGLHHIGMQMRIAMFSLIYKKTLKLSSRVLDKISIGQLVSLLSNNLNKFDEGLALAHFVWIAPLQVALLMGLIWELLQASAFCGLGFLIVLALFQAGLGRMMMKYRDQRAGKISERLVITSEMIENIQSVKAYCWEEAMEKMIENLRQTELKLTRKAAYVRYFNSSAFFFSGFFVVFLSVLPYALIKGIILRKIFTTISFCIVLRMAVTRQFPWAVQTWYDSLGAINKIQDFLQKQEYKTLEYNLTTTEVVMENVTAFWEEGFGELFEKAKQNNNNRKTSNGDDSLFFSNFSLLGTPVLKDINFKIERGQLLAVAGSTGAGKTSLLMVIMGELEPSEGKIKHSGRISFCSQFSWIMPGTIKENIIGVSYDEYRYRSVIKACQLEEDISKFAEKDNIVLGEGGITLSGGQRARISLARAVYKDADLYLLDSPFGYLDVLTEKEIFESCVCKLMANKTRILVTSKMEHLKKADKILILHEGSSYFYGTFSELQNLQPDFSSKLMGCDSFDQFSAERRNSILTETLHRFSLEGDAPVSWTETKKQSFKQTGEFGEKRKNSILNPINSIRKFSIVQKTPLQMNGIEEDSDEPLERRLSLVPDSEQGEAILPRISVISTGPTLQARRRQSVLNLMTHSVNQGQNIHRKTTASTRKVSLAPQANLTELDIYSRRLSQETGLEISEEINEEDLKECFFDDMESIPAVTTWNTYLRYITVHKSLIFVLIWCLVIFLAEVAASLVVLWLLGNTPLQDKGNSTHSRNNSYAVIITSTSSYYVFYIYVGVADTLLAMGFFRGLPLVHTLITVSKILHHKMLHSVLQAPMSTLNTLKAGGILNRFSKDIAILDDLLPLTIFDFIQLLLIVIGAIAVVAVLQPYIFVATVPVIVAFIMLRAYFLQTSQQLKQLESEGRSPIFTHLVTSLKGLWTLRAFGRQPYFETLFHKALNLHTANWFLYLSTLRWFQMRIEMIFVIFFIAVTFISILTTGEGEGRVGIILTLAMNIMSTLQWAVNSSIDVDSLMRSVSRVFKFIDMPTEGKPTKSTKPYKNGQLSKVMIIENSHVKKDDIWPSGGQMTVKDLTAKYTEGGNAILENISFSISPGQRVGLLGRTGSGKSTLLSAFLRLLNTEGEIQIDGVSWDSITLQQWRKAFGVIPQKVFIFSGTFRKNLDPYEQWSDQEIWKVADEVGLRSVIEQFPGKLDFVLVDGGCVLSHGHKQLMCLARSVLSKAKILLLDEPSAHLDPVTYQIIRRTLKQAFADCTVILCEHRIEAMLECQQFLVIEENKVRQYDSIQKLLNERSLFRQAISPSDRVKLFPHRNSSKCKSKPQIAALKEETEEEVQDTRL

What is called EC50 is the concentration giving half of the maximal effect. For `Cc1cccc(C)c1-c1cc2nc(n1)NS(=O)(=O)c1cccc(c1)C(=O)N(Cc1cccc(N3CCC[C@H]3C)n1)[C@H](CC(C)(C)C)CO2` [Compound 132, (11R)-6-(2,6-Dimethylphenyl)-11-(2,2-dimethylpropyl)-12-({6-[(2R)-2-methylpyrrolidin-1-yl]pyridin-2-yl}methyl)-9-oxa-2λ^6-thia-3,5,12,19-tetraazatricyclo[12.3.1.14,8]nonadeca-1(17),4,6,8(19),14(18),15-hexaene-2,2,13-trione], for the setting “HBE EC50 (μM), Table 11”, the EC50 is less than 1 µM. For the same compound, the Emax (read-out: HBE Max activity (%)) is more than 60%.

In the case of `Cc1cccc(C)c1-c1cc2nc(n1)NS(=O)(=O)c1cccc(c1)C(=O)N(Cc1cccc(N3CCCC3C(C)C)n1)[C@H](CC(C)(C)C)CO2` (some centres unmarked) [Compound 547], for the setting “Table 12, read-out: HBE EC50”, the EC50 is less than 1 µM. In addition, the Emax under setting [1] is more than 60%.

With `Cc1cccc(C)c1-c1cc2nc(n1)NS(=O)(=O)c1cccc(c1)C(=O)N(Cc1ncc(N3CCC(F)(F)C3)cn1)[C@H](CC(C)(C)C)CO2` [Compound 1379], under “HBE assay, read-out: HBE EC50”, the EC50 was less than 1 µM. Further, the Emax under setting [2] was more than 60%.

Consider `Cc1cccc(C)c1-c1cc2nc(n1)NS(=O)(=O)c1cccc(c1)C(=O)N(Cc1ncc(N3CCC(C)(C)C3)cn1)[C@H](CC1CCC1)CO2` [Compound 1477], for which the EC50 (HBE assay, read-out: HBE EC50) was less than 1 µM. Moreover, under setting [2], the Emax is more than 60%.

As for `Cc1cccc(C)c1-c1cc2nc(n1)NS(=O)(=O)c1cccc(c1)C(=O)N(Cc1cnc(C3CCCCC3)nc1)[C@H](CC(C)(C)C)CO2` [Compound 271], the EC50 (Table 12, read-out: HBE EC50) is less than 1 µM. Moreover, the Emax under setting [1] was more than 60%.

As for `Cc1cccc(C)c1-c1cc2nc(n1)NS(=O)(=O)c1cccc(c1)C(=O)N(Cc1ncc(O[C@@H](C)C(C)C)cn1)[C@H](CC(C)(C)C)CO2` [Compound 1301, (11R)-6-(2,6-Dimethylphenyl)-12-[[5-[(1S)-1,2-dimethylpropoxy]pyrimidin-2-yl]methyl]-11-(2,2-dimethylpropyl)-2,2-dioxo-9-oxa-2λ^6-thia-3,5,12,19-tetrazatricyclo[12.3.1.14,8]nonadeca-1(18),4(19),5,7,14,16-hexaen-13-one], the EC50 (HBE assay, read-out: HBE EC50) was less than 1 µM. For the same compound, the Emax under setting [2] was more than 60%.

On to `Cc1cccc(C)c1-c1cc2nc(n1)NS(=O)(=O)c1cccc(c1)C(=O)N(Cc1ccccc1OCC(=O)NN)[C@H](CC(C)(C)C)CO2` [Compound 777], for which the activation at 10 µM under setting [3] is more than 60%.

Take `Cc1cccc(C)c1-c1cc2nc(n1)NS(=O)(=O)c1cccc(n1)C(=O)N(Cc1cccc(NCC(C)(C)C)n1)[C@H](CC(C)(C)C)CO2` [Compound 1144]: the EC50 (Table 13, read-out: HBE EC50) was less than 1 µM. For the same compound, the Emax (Table 13, read-out: HBE Max Activity (%)) is more than 60%.

As for `Cc1cccc(C)c1-c1cc2nc(n1)NS(=O)(=O)c1cccc(c1)C(=O)N(Cc1cnn(C(C)C)c1)[C@H](CC(C)(C)C)CO2` [Compound 823], the activation at 10 µM under setting [3] is more than 60%. The Emax under setting [4] is more than 60%.

On to `CC[C@@H](C)[C@@H]1COc2cc(-c3c(C)cccc3C)nc(n2)NS(=O)(=O)c2cccc(c2)C(=O)N1Cc1ncc(OC2CCC2)cn1` [Compound 1474], for which the EC50 (HBE assay, read-out: HBE EC50) is less than 1 µM. Besides, the Emax under setting [2] is more than 60%.

Consider `Cc1cccc(C)c1-c1cc2nc(n1)NS(=O)(=O)c1cccc(c1)C(=O)N(CC(=O)N1CCC(C)(C)CC1)[C@H](CC(C)(C)C)CO2` [Compound 208], for which the activation at 10 µM (Table 13, read-out: HBE Activity at 10 μM (%)) is more than 600%.

As to `Cc1cccc(C)c1-c1cc2nc(n1)NS(=O)(=O)c1cccc(c1)C(=O)N(Cc1ncc(N3CC(C)(O)C3)cn1)[C@H](CC(C)(C)C)CO2` [Compound 586], the EC50 (Table 12, read-out: HBE EC50) is less than 1 µM. Further, the Emax under setting [1] was more than 60%.

With `Cc1cccc(C)c1-c1cc2nc(n1)NS(=O)(=O)c1cccc(c1)C(=O)N(Cc1ccc(N3CCCCC3)cn1)[C@H](CC(C)(C)C)CO2` [Compound 502], the EC50 (Table 10, read-out: HBE EC50) is less than 1 µM. For the same compound, under setting [4], the Emax is more than 60%.

On to `Cc1cccc(C)c1-c1cc2nc(n1)NS(=O)(=O)c1cccc(c1)C(=O)N(Cc1cccc(N(CC3CCCO3)C(C)C)n1)[C@H](CC(C)(C)C)CO2` (some centres unmarked) [Compound 1446], for which, under “HBE assay”, the “HBE Max activity (%)” value was “+++ (+++ is >60+)”. For the setting “HBE assay, read-out: HBE EC50”, the EC50 was less than 1 µM.

The values above are taken from patent US20240150377A1, “MODULATORS OF CYSTIC FIBROSIS TRANSMEMBRANE CONDUCTANCE REGULATOR” (VERTEX PHARMACEUTICALS INCORPORATED, priority 2020, published 2024).
